US20160030416A1, “METHODS OF TREATING B2-BRADYKININ RECEPTOR MEDIATED ANGIOEDEMA” (SHIRE HUMAN GENETIC THERAPIES, INC., priority 2013, published 2016)

Tests used:
[1] = Plasma kinetics, intravenous, Sprague-Dawley rats; type: in vivo, female Sprague-Dawley rats
Experimental: CFMQ (HGT3711) was administered to fasted female Sprague-Dawley rats by a single intravenous injection at 1.0 mg/kg, formulated in 100% PEG200 (Table 2.6.5.X, Study 10SHIRUSP11). Blood samples were taken via a jugular vein cannula prior to administration and at 0.083 (5 min), 0.25 (15 min), 0.50 (30 min), 1, 2, 4 and 8 hours post dose. Plasma concentrations of CFMQ (HGT3711) were determined by LC-MS/MS and concentrations below the limit of quantitation (1 ng/mL) were assigned a value of zero for pharmacokinetic analysis. Nominal dosing concentrations were used in all calculations.

[2] = In vitro microsomal stability, monkey; type: in vitro ADME; settings: Monkey (Cynomolgus), Male
Experimental: (§1) In vitro metabolic stability studies were performed to determine hepatic stability in vivo. CFMQ was incubated in liver microsomal preparations from mouse, rat, dog, mini-pig, and humans, as well as an additional study with monkey and human. CFMQ was incubated with human and animal liver microsomes at 0.3 mg/mL at 37° C. for 30 or 60 minutes. Additional reference compounds were incubated as controls. Following incubation, samples were analyzed by HPLC-MS/MS.

[3] = In vitro microsomal stability, human; type: in vitro ADME; settings: Mix
Experimental: as §1

[4] = tested on: BK-induced human umbilical vein contractions; test: cells; settings: Homo sapiens, 0.5 h; 30 minute incubation, BK-induced contractions; read-out: EC50, umbilical vein assay
Experimental: The inhibition effect of CFMQ on bradykinin induced […] was examined in an ex vivo functional assay of human umbilical vein contraction, which is considered a gold standard for bradykinin activity measurements. […] Firazyr®). Following a 30 minute incubation, BK-induced vein contractions were initiated in a cumulative manner (final concentration of 10 μM), followed by maximal calibration contraction induction by 10 μM serotonin. The tension increase for each dose response was calculated in relation to the (maximal) response towards serotonin, graphed as a dose-response curve and used to calculate an effective concentration at 50% (EC50) value (FIG. 6)

[5] = Pharmacokinetics, single oral gavage, 2 formulations, Wistar and Sprague-Dawley rats; type: in vivo; settings: for AUC(0-inf) / AUC(0-t) / Cmax / Tmax / half-life: rat, plasma, po
Experimental: Pharmacokinetics and gender differences were evaluated with 2 different formulations of CFMQ (HGT3711) in 2 different types of rat models. These attributes were investigated in a single oral gavage study. Male and female Wistar rats (n=3 per dose group) received CFMQ (HGT3711) at 15, […], and or 150 mg/kg. […] The two vehicle formulations evaluated were formulation 1: 10% N-methyl pyrrolidone (NMP): 10% Ethanol: 30% polyethylene glycol (PEG400): 50% […] (lauroyl polyoxylglycerides); and formulation 2: 10% NMP: 0% PEG400: 20% CREMOPHOR EL (Macrogolglycerol ricinoleate): 25% […] 44/14 (lauroyl polyoxylglycerides): 25% CAPROYOL 90 (Propylene Glycol Caprylate).
Blood samples were taken via cardiac puncture prior to administration and at 0.25 (15 min), 0.50 (30 min), 1, 2, 4, 8 and 24 hours post dose. Plasma concentrations of CFMQ (HGT3711) were determined by LC-MS/MS and nominal dosing concentrations were used in all calculations.

[6] = female, Sprague-Dawley, rat, plasma, IV 1 mg/kg
[7] = female, Sprague-Dawley, 75 mg/kg, Formulation 1, S-D (Female)
[8] = female, Sprague-Dawley, 75 mg/kg, Formulation 2, S-D (Female)
[9] = female, Wistar, 15 mg/kg, Formulation 1, Wistar (Female)
[10] = female, Wistar, 15 mg/kg, Formulation 2, Wistar (Female)
[11] = female, Wistar, 75 mg/kg, Formulation 1, Wistar (Female)
[12] = female, Wistar, 75 mg/kg, Formulation 2, Wistar (Female)
[13] = female, Wistar, 150 mg/kg, Formulation 1, Wistar (Female)
[14] = female, Wistar, 150 mg/kg, Formulation 2, Wistar (Female)
[15] = male, Sprague-Dawley, 75 mg/kg, Formulation 1, S-D (Male)
[16] = male, Sprague-Dawley, 75 mg/kg, Formulation 2, S-D (Male)
[17] = male, Wistar, 15 mg/kg, Formulation 1, Wistar (Male)
[18] = male, Wistar, 15 mg/kg, Formulation 2, Wistar (Male)
[19] = male, Wistar, 75 mg/kg, Formulation 1, Wistar (Male)
[20] = male, Wistar, 75 mg/kg, Formulation 2, Wistar (Male)
[21] = male, Wistar, 150 mg/kg, Formulation 1, Wistar (Male)
[22] = male, Wistar, 150 mg/kg, Formulation 2, Wistar (Male)

- clearance as % of liver blood flow in rat (3.3 L/hr/kg) ([1]; IV 1 mg/kg): approximately 30%
- AUC(0-inf) [1, 6]: 1410 ng·h/mL
- AUC(0-t) [1, 6]: 1150 ng·h/mL
- C0 [1, 6]: 747 ng/mL
- Tmax [1, 6]: 0 h
- clearance [1, 6]: 15.8 mL/min/kg
- half-life [1, 6]: 2.86 ± 2.54 h
- concentration at 0 hr ([1]; female, Sprague-Dawley, rat, plasma, IV 1 mg/kg, 0 hr, read-out: Average Concentration of HGT3711): 0 ng/mL
- concentration at 0.083 hr ([1]; female, Sprague-Dawley, rat, plasma, IV 1 mg/kg, 0.083 hr, read-out: Average Concentration of HGT3711): 597 ng/mL
- concentration at 0.25 hr ([1]; female, Sprague-Dawley, rat, plasma, IV 1 mg/kg, 0.25 hr, read-out: Average Concentration of HGT3711): 401 ng/mL
- concentration at 0.5 hr ([1]; female, Sprague-Dawley, rat, plasma, IV 1 mg/kg, 0.50 hr, read-out: Average Concentration of HGT3711): 324 ng/mL
- concentration at 1 hr ([1]; female, Sprague-Dawley, rat, plasma, IV 1 mg/kg, 1.0 hr, read-out: Average Concentration of HGT3711): 248 ng/mL
- concentration at 2 hr ([1]; female, Sprague-Dawley, rat, plasma, IV 1 mg/kg, 2.0 hr, read-out: Average Concentration of HGT3711): 160 ng/mL
- concentration at 4 hr ([1]; female, Sprague-Dawley, rat, plasma, IV 1 mg/kg, 4.0 hr, read-out: Average Concentration of HGT3711): 113 ng/mL
- concentration at 8 hr ([1]; female, Sprague-Dawley, rat, plasma, IV 1 mg/kg, 8.0 hr, read-out: Average Concentration of HGT3711): 36.9 ng/mL
- Vd ([1]; female, Sprague-Dawley, rat, plasma, IV 1 mg/kg, read-out: Vss): 2.6 ± 1.1 L/kg
- % Remaining [30 minutes] ([2]; 30 minutes): 32%
- % Remaining [60 minutes] ([2]; 60 minutes): 7%
- % Remaining [30 minutes] ([3]; 30 minutes): 70-91%
- % Remaining [60 minutes] ([3]; 60 minutes): 50-85%
- EC50 [4]: 7.3 nM
- oral exposure in female rats compared to male rats ([5]; average dose normalized AUC values, both S-D and Wistar): 20-40 times
- AUC(0-inf) [5, 7]: 14300 ng·h/mL
- AUC(0-t) [5, 7]: 11900 ng·h/mL
- Cmax [5, 7]: 2280 ng/mL
- Tmax [5, 7]: 0.5 h
- half-life [5, 7]: 2.01 h
- AUC(0-inf) [5, 8]: 20800 ng·h/mL
- AUC(0-t) [5, 8]: 20600 ng·h/mL
- Cmax [5, 8]: 2180 ng/mL
- Tmax [5, 8]: 0.83 h
- half-life [5, 8]: 3.58 h
- AUC(0-inf) [5, 9]: 6650 ng·h/mL
- AUC(0-t) [5, 9]: 4660 ng·h/mL
- Cmax [5, 9]: 1140 ng/mL
- Tmax [5, 9]: 0.83 h
- half-life [5, 9]: 3.1 h
- AUC(0-inf) [5, 10]: 5810 ng·h/mL
- AUC(0-t) [5, 10]: 5210 ng·h/mL
- Cmax [5, 10]: 592 ng/mL
- Tmax [5, 10]: 3.33 h
- half-life [5, 10]: 6.08 h
- AUC(0-inf) [5, 11]: 11100 ng·h/mL
- AUC(0-t) [5, 11]: 11100 ng·h/mL
- Cmax [5, 11]: 2550 ng/mL
- Tmax [5, 11]: 0.58 h
- half-life [5, 11]: 3.13 h
- AUC(0-inf) [5, 12]: 11300 ng·h/mL
- AUC(0-t) [5, 12]: 10700 ng·h/mL
- Cmax [5, 12]: 2200 ng/mL
- Tmax [5, 12]: 0.75 h
- half-life [5, 12]: 3.12 h
- AUC(0-inf) [5, 13]: 9060 ng·h/mL
- AUC(0-t) [5, 13]: 8710 ng·h/mL
- Cmax [5, 13]: 1850 ng/mL
- Tmax [5, 13]: 0.33 h
- half-life [5, 13]: 5.42 h
- AUC(0-inf) [5, 14]: 6440 ng·h/mL
- AUC(0-t) [5, 14]: 6430 ng·h/mL
- Cmax [5, 14]: 1580 ng/mL
- Tmax [5, 14]: 0.33 h
- half-life [5, 14]: 2.64 h
- AUC(0-inf) [5, 15]: 435 ng·h/mL
- AUC(0-t) [5, 15]: 410 ng·h/mL
- Cmax [5, 15]: 187 ng/mL
- Tmax [5, 15]: 0.5 h
- half-life [5, 15]: 1.96 h
- AUC(0-inf) [5, 16]: 745 ng·h/mL
- AUC(0-t) [5, 16]: 673 ng·h/mL
- Cmax [5, 16]: 191 ng/mL
- Tmax [5, 16]: 0.67 h
- half-life [5, 16]: 3.43 h
- AUC(0-inf) [5, 17]: 229 ng·h/mL
- AUC(0-t) [5, 17]: 218 ng·h/mL
- Cmax [5, 17]: 77.4 ng/mL
- Tmax [5, 17]: 0.5 h
- half-life [5, 17]: 1.67 h
- AUC(0-inf) [5, 18]: 155 ng·h/mL
- AUC(0-t) [5, 18]: 175 ng·h/mL
- Cmax [5, 18]: 34.7 ng/mL
- Tmax [5, 18]: 0.83 h
- half-life [5, 18]: 1.74 h
- AUC(0-inf) [5, 19]: 282 ng·h/mL
- AUC(0-t) [5, 19]: 243 ng·h/mL
- Cmax [5, 19]: 155 ng/mL
- Tmax [5, 19]: 0.25 h
- half-life [5, 19]: 4.28 h
- AUC(0-inf) [5, 20]: 261 ng·h/mL
- AUC(0-t) [5, 20]: 219 ng·h/mL
- Cmax [5, 20]: 94.9 ng/mL
- Tmax [5, 20]: 0.5 h
- half-life [5, 20]: 3.35 h
- AUC(0-inf) [5, 21]: 397 ng·h/mL
- AUC(0-t) [5, 21]: 309 ng·h/mL
- Cmax [5, 21]: 277 ng/mL
- Tmax [5, 21]: 0.25 h
- half-life [5, 21]: 1.63 h
- AUC(0-inf) [5, 22]: 260 ng·h/mL
- AUC(0-t) [5, 22]: 199 ng·h/mL
- Cmax [5, 22]: 119 ng/mL
- Tmax [5, 22]: 0.25 h
- half-life [5, 22]: 2.43 h
- increase in exposure, females compared to males ([5]; within both formulations): > 5 fold
SMILES: Cc1cc(Cl)c(COc2cccc3c(-n4cc(F)cn4)cc(C)nc23)c(Cn2cccc(C#N)c2=O)n1 [CFMQ, 1-((4-Chloro-3-(((4-(4-fluoro-1H-pyrazol-1-yl)-2-methylquinolin-8-yl)oxy)methyl)-6-methylpyridin-2-yl)methyl)-2-oxo-1,2-dihydropyridine-3-carbonitrile]
- adverse reactions ([1]; IV 1.0 mg/kg, rats): no adverse reactions observed
- adverse reactions ([5]; single oral gavage 15-150 mg/kg, rats): No adverse reactions were observed
